Molecular target: T1, c-Met kinase (recombinant c-Met) (Homo sapiens, UniProt P08581)
T1 construct: 0.27 nM recombinant c-Met
Assay: In vitro kinase assay I (homogeneous time-resolved fluorescence tyrosine kinase assay)
Format: biochemical
In short: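 Biotinylated peptide (0.5 μM) phosphorylated by 0.2 nM recombinant c-Met with 50 μM MgATP, 60 min at room temperature, pH 7.4, 5% DMSO. EDTA stop; HTRF read with Eu-anti-phosphotyrosine antibody and streptavidin-APC. IC50 from 4-parameter logistic fit.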

T1 sequence (P08581 25-1390): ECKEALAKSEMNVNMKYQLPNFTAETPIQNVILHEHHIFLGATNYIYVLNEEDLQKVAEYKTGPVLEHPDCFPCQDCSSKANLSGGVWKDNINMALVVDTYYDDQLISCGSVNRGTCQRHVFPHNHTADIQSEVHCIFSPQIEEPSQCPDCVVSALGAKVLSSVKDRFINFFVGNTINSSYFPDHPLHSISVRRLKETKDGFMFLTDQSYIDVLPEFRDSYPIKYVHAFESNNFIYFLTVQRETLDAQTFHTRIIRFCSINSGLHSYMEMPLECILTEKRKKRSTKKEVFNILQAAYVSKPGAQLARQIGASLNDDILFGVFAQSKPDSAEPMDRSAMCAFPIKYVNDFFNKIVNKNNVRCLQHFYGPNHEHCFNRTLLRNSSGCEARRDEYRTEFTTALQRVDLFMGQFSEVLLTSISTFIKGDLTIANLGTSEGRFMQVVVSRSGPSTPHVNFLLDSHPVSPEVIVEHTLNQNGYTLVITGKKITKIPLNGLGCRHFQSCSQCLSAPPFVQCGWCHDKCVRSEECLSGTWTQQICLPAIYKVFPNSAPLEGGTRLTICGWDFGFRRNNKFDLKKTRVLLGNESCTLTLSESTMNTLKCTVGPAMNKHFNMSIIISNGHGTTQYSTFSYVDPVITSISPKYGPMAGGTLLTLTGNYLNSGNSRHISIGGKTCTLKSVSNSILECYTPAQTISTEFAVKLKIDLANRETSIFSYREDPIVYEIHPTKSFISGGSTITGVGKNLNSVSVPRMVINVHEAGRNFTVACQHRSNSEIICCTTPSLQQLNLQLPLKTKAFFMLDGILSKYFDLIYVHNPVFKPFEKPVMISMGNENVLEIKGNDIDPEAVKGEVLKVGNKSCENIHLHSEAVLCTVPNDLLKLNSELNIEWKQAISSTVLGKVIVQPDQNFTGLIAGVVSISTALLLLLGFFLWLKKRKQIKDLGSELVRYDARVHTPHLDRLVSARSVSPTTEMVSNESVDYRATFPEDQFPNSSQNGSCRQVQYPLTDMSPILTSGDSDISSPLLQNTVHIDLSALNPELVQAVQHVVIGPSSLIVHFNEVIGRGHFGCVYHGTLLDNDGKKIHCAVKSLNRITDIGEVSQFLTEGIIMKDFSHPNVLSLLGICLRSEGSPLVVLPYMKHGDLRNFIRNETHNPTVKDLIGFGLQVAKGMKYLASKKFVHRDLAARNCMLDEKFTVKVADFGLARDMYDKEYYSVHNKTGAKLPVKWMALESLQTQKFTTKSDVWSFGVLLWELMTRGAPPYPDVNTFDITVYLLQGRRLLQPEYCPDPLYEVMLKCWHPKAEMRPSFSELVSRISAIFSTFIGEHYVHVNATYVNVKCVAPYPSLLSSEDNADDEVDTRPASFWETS

SMILES	IC50 [nM]
CC(c1cccc(-c2ncc(-n3cnnc3)cn2)c1)c1nn(-c2cnn(C)c2)ccc1=O (single isomer, unassigned) [Example 240, 1-(1-methyl-1H-pyrazol-4-yl)-3-[(1R or S)-1-{3-[5-(4H-1,2,4-triazol-4-yl)pyrimidin-2-yl]phenyl}ethyl]pyridazin-4(1H)-one]	100 to 1000
CC(c1cccc(-c2ncc(Br)cn2)c1)c1nn(-c2cnn(C)c2)ccc1=O (single isomer, unassigned) [Example 241, 3-{(1S or R)-1-[3-(5-bromopyrimidin-2-yl)pheny]ethyl)}-1-(1-methyl-1H-pyrazol-4-yl)pyridazin-4(1H)-one]	100 to 1000
CC(c1cccc(-c2ncc(Br)cn2)c1)c1nn(-c2cnn(C)c2)ccc1=O (single isomer, unassigned) [Example 242, 3-{(1R or S)-1-[3-(5-bromopyrimidin-2-yl)phenyl]ethyl}-1-(1-methyl-1H-pyrazol-4-yl)pyridazin-4(1H)-one]	< 100
CC(c1cccc(-c2ncc(N3CCOCC3)cn2)c1)c1nn(-c2cnn(C)c2)ccc1=O (single isomer, unassigned) [Example 243, 1,1-methyl-1H-pyrazol-4-yl)-3-{(1S or R)-1-[3-(5-morpholin-4-ylpyrimidin-2-yl)phenyl]ethyl}pyridazin-4(1H) one]	< 100
CC(c1cccc(-c2ncc(N3CCOCC3)cn2)c1)c1nn(-c2cnn(C)c2)ccc1=O (single isomer, unassigned) [Example 244, 1-(1-methyl-1H-pyrazol-4-yl)-3-{(1R or S)-1-[3-(5-morpholin-4-ylpyrimidin-2-yl)phenyl]ethyl}pyridazin-4(1H)-one]	100 to 1000
CCOc1cnc(-c2cccc(C(C)c3nn(-c4cnn(CC)c4)ccc3=O)c2)nc1 (single isomer, unassigned) [Example 245, 3-{(1S or R)-1-[3-(5-ethoxypyrimidin-2-yl)phenyl]ethyl}-1-(1-ethyl-1H-pyrazol-4-yl)pyridazin-4(1H)-one]	100 to 1000
CCOc1cnc(-c2cccc(C(C)c3nn(-c4cnn(CC)c4)ccc3=O)c2)nc1 (single isomer, unassigned) [Example 246, 3-{(1R or S)-1-[3-(5-ethoxypyrimidin-2-yl)phenyl]ethyl}-1-(1-ethyl-1H-pyrazol-4-yl)pyridazin-4(1H)-one]	< 100
CCn1cc(-n2ccc(=O)c(C(C)c3cccc(-c4ncc(OCCOC)cn4)c3)n2)cn1 (single isomer, unassigned) [Example 247, 1-(1-ethyl-1H-pyrazol-4-yl)-3-((1S or R)-1-{3-[5-(2-methoxyethoxy)primidin-2-yl]phenyl}ethyl)pyridazin-4(1H)-one]	100 to 1000
CCn1cc(-n2ccc(=O)c(C(C)c3cccc(-c4ncc(OCCOC)cn4)c3)n2)cn1 (single isomer, unassigned) [Example 248, 1-(1-ethyl-1H-pyrazol-4-yl)-3-((1R or S)-1-{3-[5-(2-methoxyethoxy)pyrimidin-2-yl]phenyl}ethyl)pyridazin-4(1H)-one]	< 100
CC(c1cccc(-c2ncc(OCC(C)(C)O)cn2)c1)c1nn(-c2ccc(F)c(F)c2)ccc1=O (single isomer, unassigned) [Example 249, 1-(3,4-difluorophenyl)-3-[(1S or R)-1-{3-[5-(2-hydroxy-2-methylpropoxy)pyrimidin-2-yl]phenyl}ethyl]pyridazin-4(1H)-one]	100 to 1000
CC(c1cccc(-c2ncc(OCC(C)(C)O)cn2)c1)c1nn(-c2ccc(F)c(F)c2)ccc1=O (single isomer, unassigned) [Example 250, 1-(3,4-difluorophenyl)-3-[(1R or S)-1-{3-[5-(2-hydroxy-2-methylpropoxy)pyrimidin-2-yl]phenyl}ethyl]pyridazin-4(1H)-one]	< 100
COC(C)(C)COc1cnc(-c2cccc(C(C)c3nn(-c4ccc(F)c(F)c4)ccc3=O)c2)nc1 (single isomer, unassigned) [Example 251, 1-(3,4-difluorophenyl)-3-[(1S or R)-1-{3-[5-(2-methoxy-2-methylpropoxy)pyrimidin-2-yl]phenyl}ethyl]pyridazin-4(1H)-one]	< 100
COC(C)(C)COc1cnc(-c2cccc(C(C)c3nn(-c4ccc(F)c(F)c4)ccc3=O)c2)nc1 (single isomer, unassigned) [Example 252, 1-(3,4-difluorophenyl)-3-[(1R or S)-1-{3-[5-(2-methoxy-2-methylpropoxy)pyrimidin-2-yl]phenyl}ethyl]pyridazin-4(1H)-one]	< 100
CCOc1cnc(-c2cccc(C(C)c3nn(-c4cnn(CCO)c4)ccc3=O)c2)nc1 (single isomer, unassigned) [Example 255, 3-{(1S or R)-1-[3-(5-Ethoxypyrimidin-2-yl)phenyl]ethyl}-1-[1-(2-hydroxyethyl)-1H-pyrazol-4-yl]pyridazin-4(1H)-one]	100 to 1000
CCOc1cnc(-c2cccc(C(C)c3nn(-c4cnn(CCO)c4)ccc3=O)c2)nc1 (single isomer, unassigned) [Example 256, 3-{(1R or S)-1-[3-(5-ethoxypyrimidin-2-yl)phenyl]ethyl}-1-[1-(2-hydroxyethyl)-1H-pyrazol-4-yl]pyridazin-4(1H)-one]	< 100
CCn1cc(-n2ccc(=O)c(C(C)c3cccc(-c4ncc(O)cn4)c3)n2)cn1 (single isomer, unassigned) [Example 257, 1-(1-ethyl-1H-pyrazol-4-yl)-3-{(1S or R)-1-[3-(5-hydroxypyrimidin-2-yl)phenyl]ethyl}pyridazin-4(1H)-one]	1000 to 3000
CCn1cc(-n2ccc(=O)c(C(C)c3cccc(-c4ncc(O)cn4)c3)n2)cn1 (single isomer, unassigned) [Example 258, 1-(1-ethyl-1H-pyrazol-4-yl)-3-{(1R or S)-1-[3-(5-hydroxypyrimidin-2-yl)phenyl]ethyl}pyridazin-4(1H)-one]	< 100
CCn1cc(-n2ccc(=O)c(C(C)c3cccc(-c4ncc(OCC5(F)CCN(C(=O)OC(C)(C)C)CC5)cn4)c3)n2)cn1 (single isomer, unassigned) [Example 290, tert-butyl 4-({[2-(3-{(1R or S)-1-[1-(1-ethyl-1H pyrazol-4-yl)-4-oxo-1,4-dihydropyridazin-3-yl]ethyl}phenyl)pyrimidin-5-yl]oxy}methyl)-4-fluoropiperidine-1-carboxylate]	< 100
CCn1cc(-n2ccc(=O)c(C(C)c3cccc(-c4ncc(OCC5CCN(C(=O)OC(C)(C)C)CC5)cn4)c3)n2)cn1 (single isomer, unassigned) [Example 291, tert-butyl 4-({[2-(3-{(1R or S)-1-[1-(1-ethyl-1H-pyrazol-4-yl)-4-oxo-1,4-dihydropyridazin-3-yl]ethyl}phenyl)pyrimidin-5-yl]oxy}methyl)piperidine-1-carboxylate]	< 100
CCn1cc(-n2ccc(=O)c(C(C)c3cccc(-c4ncc(OC5CN(C(=O)OC(C)(C)C)C5)cn4)c3)n2)cn1 (single isomer, unassigned) [Example 292, tert-butyl 3-{[2-(3-{(1R or S)-1-[1-(1-ethyl-1H-pyrazol-4-yl)-4-oxo-1,4-dihydropyridazin-3-yl]ethyl}phenyl)pyrimidin-5-yl]oxy}azetidine-1-carboxylate]	< 100
CCn1cc(-n2ccc(=O)c(C(C)c3cccc(-c4ncc(OC(C)C)cn4)c3)n2)cn1 (single isomer, unassigned) [Example 293, 1-(1-ethyl-1H-pyrazol-4-yl)-3-[(1R or S)-1-{3-[5-(1-methylethoxy)pyrimidin-2-yl]phenyl}ethyl]pyridazin-4(1H)-one]	< 100
CCn1cc(-n2ccc(=O)c(C(C)c3cccc(-c4ncc(OCC(F)F)cn4)c3)n2)cn1 (single isomer, unassigned) [Example 294, 3-[(1R or S)-1-{3-[5-(2,2-difluoroethoxy)pyrimidin-2-yl]phenyl}ethyl]-1-(1-ethyl-1H-pyrazol-4-yl)pyridazin-4(1H)-one]	< 100
CCn1cc(-n2ccc(=O)c(C(C)c3cccc(-c4ncc(OCCO)cn4)c3)n2)cn1 (single isomer, unassigned) [Example 295, 1-(1-ethyl-1H-pyrazol-4-yl)-3-[(1R or S)-1-{3-[5-(2-hydroxyethoxy)pyrimidin-2-yl]phenyl}ethyl]pyridazin-4(1H)-one]	< 100
CCn1cc(-n2ccc(=O)c(C(C)c3cccc(-c4ncc(OCC5CCO5)cn4)c3)n2)cn1 (single isomer, unassigned) [Example 296, 1-(1-ethyl-1H-pyrazol-4-yl)-3-[(1R or S)-1-{3-[5-(oxetan-2-ylmethoxy)primidin-2-yl]phenyl}ethyl]pyridazin-4(1H)-one]	< 100
CCn1cc(-n2ccc(=O)c(C(C)c3cccc(-c4ncc(OC5CCOC5)cn4)c3)n2)cn1 (single isomer, unassigned) [Example 297, 1-(1-ethyl-1H-pyrazol-4-yl)-3-[(1R or S)-1-{3-[5-(tetrahydrofuran-3-yloxy)pyrimidin-2-yl]phenyl}ethyl]pyridazin-4(1H)-one]	< 100
CCn1cc(-n2ccc(=O)c(C(C)c3cccc(-c4ncc(OCC5CCCO5)cn4)c3)n2)cn1 (single isomer, unassigned) [Example 298, 1-(1-ethyl-1H-pyrazol-4-yl)-3-[(1R or S)-1-{3-[5-(tetrahydrofuran-2-ylmethoxy)pyrimidin-2-yl]phenyl}ethyl]pyridazin-4(1H)-one]	< 100
CCn1cc(-n2ccc(=O)c(C(C)c3cccc(-c4ncc(OCC5COCCO5)cn4)c3)n2)cn1 (single isomer, unassigned) [Example 299, 3-[(1R or S)-1-{3-[5-(1,4-dioxan-2-ylmethoxy)pyrimidin-2-yl]phenyl}ethyl]-1-(1-ethyl-1H-pyrazol-4-yl)pyriazin-4(1H)-one]	< 100
CCn1cc(-n2ccc(=O)c(C(C)c3cccc(-c4ncc(OCCN5CCOCC5)cn4)c3)n2)cn1 (single isomer, unassigned) [Example 300, 1-(1-ethyl-1H-pyrazol-4-yl)-3-[(1R or S)-1-{3-[5-(2-morpholin-4-ylethoxy)pyrimidin-2-yl]phenyl}ethyl]pyridazin-4(1H)-one]	< 100

— patent publication US20120264735A1 (priority 2009, published 2012)
